The target of the assay is tau (Homo sapiens, UniProt P10636). Kind of assay: MCE Phenols Library screening, tau biosensor cell seeding assay (AvZ). The following applies: for Z repl 1 / Z Repl 2: Z score; for Z repl 1 / raw data 1: replicate 1; for Z Repl 2 / raw data 2: replicate 2; for AvZ (average z score of seeding, SDs from the mean level of seeding): 10 μM phenol in cell cultures, AD brain homogenate preincubated 16 hours, two biological replicates, positive = catalyzes seeding, negative = inhibits. It is filed as cell-based.

The mark [1] stands for this setting: average Z score of the two replicates, MCE Phenols Library screen.
Setting [2] is: average puncta of the two replicates.
Setting [3] is: average Z score of two replicates, Phenols Library screen.
The mark [4] stands for this setting: average Z score of the two replicates, tau seeding.
[5] abbreviates: average Z score of the two replicates, tau biosensor seeding, MCE Phenols Library screen.

Each structure is given as a SMILES string.

tau, sequence (P10636 623-695 limits assumed): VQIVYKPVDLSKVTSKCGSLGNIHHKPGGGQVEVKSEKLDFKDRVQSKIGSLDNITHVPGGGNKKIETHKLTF

As to `COc1ccc2c(c1O)-c1c(OC)c(OC)cc3c1[C@H](C2)N(C)CC3` [Isocorydine], the “Z repl 1” value is listed as -0.45 and the “Z Repl 2” value is recorded as -0.651. Moreover, under setting [1], the “av Z” value is listed as -0.55. For the same compound, the av puncta under setting [2] was found to be 13380.4. Also, for the setting “puncta”, the “raw data 1” value worked out at 20943.6 and the “raw data 2” value stood at 5817.19.

Regarding `C/C=C/c1ccc(OC(C)=O)c(OC)c1` [Isoeugenol acetate], the “AvZ (average z score of seeding, SDs from the mean level of seeding)” value (“AvZ” for short) is reported as -0.275; the “Z repl 1” value was -0.788; the “Z Repl 2” value is given as 0.239. For the same compound, under setting [2], the av puncta worked out at 16103.3. Under “raw puncta”, the “raw data 1” value was 16893.4 and the “raw data 2” value worked out at 15313.2.

Turning to `COc1ccc2c(=O)c(-c3ccc(O)cc3)coc2c1` [Isoformononetin], the “Z repl 1” value stood at 0.35 and the “Z Repl 2” value is -0.155. Also, under setting [3], the “av Z” value was determined as 0.098. The same compound showed an av puncta (average of raw data 1 and 2) of 20831. Further, for the setting “puncta”, the “raw data 1” value was found to be 30549.1 and the “raw data 2” value is recorded as 11112.8.

For `COc1cc2ccc(=O)oc2c(OC)c1O` [Isofraxidin], the “Z repl 1” value worked out at 0.211 and the “Z Repl 2” value is 0.742. Under setting [4], the “av Z” value is 0.477. The compound further yielded an av puncta (average of raw data 1 and 2) of 24789.8. Moreover, for the setting “puncta”, the “raw data 1” value is reported as 28887.4 and the “raw data 2” value worked out at 20692.2.

As for `COc1ccc(C[C@@H]2c3cc(Oc4cc(C[C@@H]5c6cc(O)c(OC)cc6CCN5C)ccc4O)c(OC)cc3CCN2C)cc1` [Isoliensinine], the “Z repl 1” value is on record as 0.107 and the “Z Repl 2” value was found to be 0.423. Under setting [4], the “av Z” value came to 0.265. The same compound had an av puncta (average of raw data 1 and 2) of 22459.5. Moreover, under “puncta”, the “raw data 1” value stood at 27639.6 and the “raw data 2” value is recorded as 17279.4.

As to `O=C(/C=C/c1ccc(O)cc1)c1ccc(O)cc1O` [Isoliquiritigenin], the “Z repl 1” value is given as 0.483 and the “Z Repl 2” value stood at 0.177. Moreover, the “av Z” value under setting [4] turned out to be 0.33. For the setting “average of raw data 1 and 2”, this compound displayed an av puncta of 23402.5. Further, where the note is “puncta”, the “raw data 1” value is listed as 32143.5 and the “raw data 2” value is recorded as 14661.5.

As to `O=c1c2cc(O)c(O)cc2oc2c([C@@H]3O[C@H](CO)[C@@H](O)[C@H](O)[C@H]3O)c(O)cc(O)c12` [Isomangiferin], the “Z repl 1” value was 0.307 and the “Z Repl 2” value stood at 0.537. Under setting [4], the “av Z” value was 0.422. The av puncta (average of raw data 1 and 2) is 24267.1. Besides, where the note is “puncta”, the “raw data 1” value came out at 30032.6 and the “raw data 2” value amounted to 18501.6.

Consider `O=c1cc(-c2ccc(O)c(O)c2)oc2cc(O)c([C@@H]3O[C@H](CO)[C@@H](O)[C@H](O)[C@H]3O)c(O)c12` [Isoorientin], for which the “Z repl 1” value was determined as 0.708 and the “Z Repl 2” value came out at 0.042. The “av Z” value under setting [4] worked out at 0.375. The compound also displayed an av puncta (average of raw data 1 and 2) of 24030.3. In addition, where the note is “puncta”, the “raw data 1” value is recorded as 34846.9 and the “raw data 2” value is 13213.7.

In the case of `COc1cc(/C=C/C(=O)OC(C)C)ccc1O` [Isopropyl ferulate], the “AvZ” value is given as -0.332; the “Z repl 1” value turned out to be 0.168; the “Z Repl 2” value is -0.833. This compound had an av puncta under setting [2] of 16119. Further, for the setting “raw puncta”, the “raw data 1” value was found to be 28366.5 and the “raw data 2” value was determined as 3871.42.

As to `O=c1c(O[C@@H]2O[C@H](CO)[C@@H](O)[C@H](O)[C@H]2O)c(-c2ccc(O)c(O)c2)oc2cc(O)cc(O)c12` [Isoquercetin], the “Z repl 1” value came out at 0.174 and the “Z Repl 2” value is -0.844. Further, under setting [1], the “av Z” value was -0.335. For the same compound, the av puncta under setting [2] stood at 16096.8. Also, for the setting “raw puncta”, the “raw data 1” value was 28442.1 and the “raw data 2” value worked out at 3751.47.

`COc1cc(-c2oc3cc(O)cc(O)c3c(=O)c2O)ccc1O` [Isorhamnetin]: the “Z repl 1” value is given as 0.124 and the “Z Repl 2” value is reported as -0.648. For the same compound, the “av Z” value under setting [1] was -0.262. This compound also came in with an av puncta under setting [2] of 16840.7. Further, for the setting “raw puncta”, the “raw data 1” value was determined as 27835.2 and the “raw data 2” value stood at 5846.21.

Consider `COc1cc(/C=C/c2cc(O)cc(O)c2)ccc1O` [Isorhapontigenin], for which the “Z repl 1” value worked out at 1.299 and the “Z Repl 2” value was 0.571. In addition, under setting [5], the “av Z” value was 0.935. Further, for the setting “average of raw data 1 and 2”, the av puncta is given as 30407. Under “puncta”, the “raw data 1” value is listed as 41947.4 and the “raw data 2” value is 18866.6.

Consider `O=c1cc(-c2ccc(O)cc2)oc2c([C@@H]3O[C@H](CO)[C@@H](O)[C@H](O)[C@H]3O)c(O)c([C@@H]3OC[C@H](O)[C@H](O)[C@H]3O)c(O)c12` [Isoschaftoside], for which the “Z repl 1” value is -0.121 and the “Z Repl 2” value is -0.131. In addition, the “av Z” value under setting [3] was -0.126. Also, under “average of raw data 1 and 2”, the av puncta came out at 18128.6. Besides, for the setting “puncta”, the “raw data 1” value was determined as 24892.1 and the “raw data 2” value is given as 11365.2.

As to `COc1ccc(C(=O)O)cc1O` [Isovanillic acid], the “AvZ” value was -0.151; the “Z repl 1” value is on record as 0.248; the “Z Repl 2” value is reported as -0.549. Besides, the av puncta (average of raw data 1 and 2) is 18113.3. In addition, for the setting “puncta”, the “raw data 1” value is 29328.9 and the “raw data 2” value is 6897.73.

`COc1ccc(C=O)cc1O` [Isovanillin]: the “AvZ” value is on record as -0.519; the “Z repl 1” value is recorded as -0.326; the “Z Repl 2” value was -0.711. In addition, under setting [2], the av puncta is 13803.3. For the same compound, where the note is “puncta”, the “raw data 1” value is recorded as 22438.6 and the “raw data 2” value is listed as 5167.88.

Take `O=c1cc(-c2ccc(O)cc2)oc2cc(O)c([C@@H]3O[C@H](CO)[C@@H](O)[C@H](O)[C@H]3O[C@@H]3OC[C@H](O)[C@H](O)[C@H]3O)c(O)c12` [Isovitexin 2''-O-arabinoside]: the “Z repl 1” value is listed as -0.906 and the “Z Repl 2” value was -0.245. Under setting [1], the “av Z” value is -0.575. The compound also showed an av puncta under setting [2] of 12810.9. For the setting “puncta”, the “raw data 1” value stood at 15471.3 and the “raw data 2” value is 10150.6.

On to `O=c1cc(-c2ccc(O)cc2)oc2cc(O)c([C@@H]3O[C@H](CO)[C@@H](O)[C@H](O)[C@H]3O)c(O)c12` [Isovitexin], for which the “Z repl 1” value is given as 0.953 and the “Z Repl 2” value is on record as 1.769. Also, the “av Z” value under setting [5] came to 1.361. Besides, the av puncta (average of raw data 1 and 2) was 34727.5. Where the note is “puncta”, the “raw data 1” value came out at 37791.5 and the “raw data 2” value is on record as 31663.6.

`COc1cc(-c2cc(=O)c3c(O)c(OC)c(O)cc3o2)ccc1O` [Jaceosidin]: the “Z repl 1” value came to 1.473 and the “Z Repl 2” value worked out at 0.443. For the same compound, under setting [5], the “av Z” value is 0.958. This compound registered an av puncta (average of raw data 1 and 2) of 30766.9. Under “puncta”, the “raw data 1” value came out at 44034.1 and the “raw data 2” value came out at 17499.7.

Take `COc1cc2c(cc1O)CC[n+]1cc3c(OC)c(OC)ccc3cc1-2.[Cl-]` [Jatrorrhizine (chloride)]: the “Z repl 1” value is on record as 0.505 and the “Z Repl 2” value was -0.062. Further, the “av Z” value under setting [4] came out at 0.221. For the same compound, the av puncta (average of raw data 1 and 2) was determined as 22254. Also, for the setting “puncta”, the “raw data 1” value was 32409.6 and the “raw data 2” value is reported as 12098.4.

The values are drawn from publication PMC11784839, “Monoaminergic neurotransmitters are bimodal effectors of tau aggregation” (Science Advances, 2025).
